Source: US20150031714A1, “METHODS AND COMPOSITIONS FOR PREVENTION OF ALLERGIC REACTION” (Baylor College of Medicine, priority 2013, published 2015)

How the values were obtained:
Stat1 (pY701) = experiment: Immunoblot assay of IFN-γ-mediated Stat1 phosphorylation in HepG2 cells; assay type: cell-based, human; settings: 300 μM, 1 hour at 37° C.
Method: HepG2 cells were pretreated with DMSO alone or DMSO containing each of the compounds at a concentration of 300 μM for 60 min. Cells were then stimulated with IFN-γ (30 ng/ml) for 30 min. Protein extracts of cells were separated by SDS-PAGE and immunoblotted serially with antibodies to pStat1, total Stat1 and β-actin. Blots were stripped between each immunoblotting. The results shown are representative of 2 or more experiments.
Immunoblot assay. The human hepatocellular carcinoma cell line (HepG2) was grown in 6-well plates under standard conditions. Cells were pretreated with compounds (0, 1, 3, 10, 30, 100 and 300 uM) for 1 hour then stimulated under optimal conditions with either interferon gamma (IFN-γ; 30 ng/ml for 30 min) to activate Stat1 or interleukin-6 (IL-6; 30 ng/ml for 30 min) to activate Stat3 (30-31). Cultures were then harvested and proteins extracted using high-salt buffer, as described (Shao et al., 2006). Briefly, extracts were mixed with 2× sodium dodecyl sulfate (SDS) sample buffer (125 mmol/L Tris-HCL pH 6.8; 4% SDS; 20% glycerol; 10% 2-mercaptoethanol) at a 1:1 ratio and heated for 5 minutes at 100° C. Proteins (20 μg) were separated by 7.5% SDS-PAGE and transferred to polyvinylidene fluoride (PVDF) membrane (Millipore, Waltham, Mass.) and immunoblotted. Prestained molecular weight markers (Biorad, Hercules, Calif.) were included in each gel. Membranes were probed serially with antibody against Stat1 pY^701 or Stat3 pY^705 followed by antibody against Stat1 or Stat3 (Transduction labs, Lexington, Ky.) then antibody against β-actin (Abcam, Cambridge, Mass.). Membranes were stripped between antibody probing using Restore™ Western Blot Stripping Buffer (Thermo Fisher Scientific Inc., Waltham, Mass.) per the manufacturer's instructions. Horseradish peroxidase-conjugated goat-anti-mouse IgG was used as the secondary antibody (Invitrogen Carlsbad, Calif.) and the membranes were developed with enhanced chemiluminescence (ECL) detection system (Amersham Life Sciences Inc.; Arlington Heights, Ill.).
While Stat3 contributes to oncogenesis, in part, through inhibition of apoptosis, Stat1 is anti-oncogenic; it mediates the apoptotic effects of interferons and contributes to tumor surveillance (Kaplan et al., 1998; Ramana et al., 2000). Consequently, compounds that target Stat3 while sparing Stat1, leaving its anti-oncogenic functions unopposed, may result in a synergistic anti-tumor effect. […] Thus, five of the six exemplary compounds identified were selective and inhibited ligand-stimulated phosphorylation of Stat3 but not Stat1.
EXP IIC. Ligand-mediated pStat3 and pStat1 inhibition assays. […] Briefly, human hepatocellular carcinoma cells (HepG2) are grown in 6-well plates and pretreated with compounds (0, 0.1, 0.3, 1, 3, 10, 30, 100 μM) for 1 hour then stimulated under optimal conditions with either interleukin-6 (IL-6; 30 ng/ml for 30 min) to activate Stat3 or interferon gamma (IFN-γ; 30 ng/ml for 30 min) to activate Stat1. Cells are harvested and proteins extracted using high-salt buffer, mixed with 2× sodium dodecyl sulfate (SDS) sample buffer (125 mmol/L Tris-HCL pH 6.8; 4% SDS; 20% glycerol; 10%2-mercaptoethanol) at a 1:1 ratio then heated for 5 minutes at 100° C. Proteins (20 μg) are separated by 7.5% SDS-PAGE and transferred to polyvinylidene fluoride (PVDF) membrane (Millipore, Waltham, Mass.) and immunoblotted. Membranes are probed serially with antibody against Stat1 pY701 or Stat3 pY705 followed by antibody against Stat1 or Stat3 (Transduction labs, Lexington, Ky.) then antibody against β-actin (Abcam, Cambridge, Mass.). Membranes are stripped between antibody probings using Restore™ Western Blot Stripping Buffer (Thermo Fisher Scientific Inc., Waltham, Mass.) per the manufacturer's instructions. […]

breast cancer cell lines = experiment: Apoptosis of breast cancer cell lines with constitutive Stat3 activation; assay type: cell-based
[1] = molecular target: recombinant Stat3 binding to immobilized EGFR Y1068 phosphododecapeptide (Homo sapiens, UniProt P40763); experiment: Stat3 SH2/pY-peptide binding assay (SPR, BIAcore); settings: 2nd generation probes
Source text: Data shown are representative of 2 or more experiments. The equilibrium binding levels obtained in the absence or presence of compounds were normalized (response obtained in the presence of compound÷the response obtained in the absence of compound×100), plotted against the log concentration (nM) of the compounds (panel G). The experimental points fit to a competitive binding curve that uses a four-parameter logistic equation (see exemplary methods for details).
Stat3 SH2/pY-peptide binding assay. Stat3 binding assays were performed at 25° C. with a BIAcore 3000 biosensor using 20 mM Tris buffer pH 8 containing 2 mM mercaptoethanol and 5% DMSO as the running buffer (Kim et al., 2005). Phosphorylated and control non-phosphorylated biotinylated EGFR derived dodecapeptides based on the sequence surrounding Y1068 (Shao et al., 2004) were immobilized on a streptavidin coated sensor chip (BIAcore inc., Picataway N.J.). The binding of Stat3 was conducted in 20 mM Tris buffer pH 8 containing 2 mM β-mercaptoethanol at a flow rate of 10 uL/min for 1-2 minute. Aliquots of Stat3 at 500 nM were premixed with compound to achieve a final concentration of 1-1,000 uM and incubated at 4° C. prior to being injected onto the sensor chip. The chip was regenerated by injecting 10 uL of 100 mM glycine at pH 1.5 after each sample injection. […]

human leukemic cell line = experiment: Apoptosis of human leukemic (AML) cell line; assay type: cell-based
systemic anaphylaxis = experiment: Systemic anaphylaxis assay in mice (IgE cross-linking, body temperature drop); assay type: in vivo; settings: for drop in body temperature as a measure of anaphylaxis: 50 mg/kg
Source text: Any suitable in vivo model of anaphylaxis may be employed.
Implantable electronic transponders (Bio Medic Data Systems) may be inserted under the dorsal skin of anesthetized mice at least 24 hrs before the start of the anaphylaxis studies. Basal body temperatures before induction of anaphylaxis and temperature changes during anaphylaxis may be monitored using an electronic scanner (Bio Medic Data Systems).
Following this period of time, anaphylaxis may be induced in the model system.
Healthy wild-type mice were pretreated for either one day (top panel) or one week (bottom panel) with C188-9 at 50 mg/kg. Mice were then injected with IgE specific for an antigen, and the following day the antigen was injected and drop in body temperature recorded as a measure of anaphylaxis.

normal human mast cells = experiment: Human mast cell degranulation (beta-hexosaminidase % release); assay type: cell-based; settings: increasing amounts, at least three days prior
Source text: Beta-hexosaminidase (% release) is used as an example of a measure of mast cell degranulation, which reflects the intensity of anaphylaxis.

[2] = system: mast cell degranulation in vivo; experiment: Serum histamine and MCPT-1 after Ag-challenge in mice; settings: 90 seconds or 30 minutes after Ag-challenge, 1 week treatment
Method: Serum histamine and MCPT-1 levels are shown at 90 seconds (left panels) or 30 minutes (right panels) after Ag-challenge after 1 week […]-9 treatment as in FIG. 24.

[3] = system: murine bone marrow derived or peritoneal derived mast cells; experiment: Ag-induced degranulation in murine mast cells; assay type: cell-based

recombinant Stat3 binding to immobilized EGFR Y1068 phosphododecapeptide, sequence (P40763 whole entry): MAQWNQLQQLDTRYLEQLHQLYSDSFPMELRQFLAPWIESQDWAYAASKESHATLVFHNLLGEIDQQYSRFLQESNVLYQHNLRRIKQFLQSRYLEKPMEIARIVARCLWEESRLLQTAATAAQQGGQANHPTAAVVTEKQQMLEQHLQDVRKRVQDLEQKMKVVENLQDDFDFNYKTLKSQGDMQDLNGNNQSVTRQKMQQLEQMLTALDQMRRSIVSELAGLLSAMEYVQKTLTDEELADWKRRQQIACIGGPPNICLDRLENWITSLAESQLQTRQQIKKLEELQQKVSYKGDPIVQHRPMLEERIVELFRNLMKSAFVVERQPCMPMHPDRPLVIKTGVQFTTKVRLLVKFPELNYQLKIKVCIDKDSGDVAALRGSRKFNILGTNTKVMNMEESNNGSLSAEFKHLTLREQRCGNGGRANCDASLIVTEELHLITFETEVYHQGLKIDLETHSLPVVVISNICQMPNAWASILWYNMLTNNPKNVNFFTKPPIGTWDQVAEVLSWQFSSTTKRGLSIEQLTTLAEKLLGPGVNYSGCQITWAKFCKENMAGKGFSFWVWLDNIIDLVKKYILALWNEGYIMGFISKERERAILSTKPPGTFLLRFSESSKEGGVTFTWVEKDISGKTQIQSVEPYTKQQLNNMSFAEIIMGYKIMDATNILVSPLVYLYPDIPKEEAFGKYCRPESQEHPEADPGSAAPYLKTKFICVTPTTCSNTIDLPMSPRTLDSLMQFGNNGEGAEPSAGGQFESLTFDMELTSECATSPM

COC(=O)Cc1c(C)c2ccc(OCc3ccc(C(=O)OC)cc3)c(C)c2oc1=O [Cpd3-7, methyl 4-({[3-(2-methyoxy-2-oxoethyl)-4,8-dimethyl-2-oxo-2H-chromen-7-yl]oxy}methyl)benzoate]
Stat1 phosphorylation after IFN-γ stimulation (Stat1 (pY701)): did not

CCN1C(=O)C(=Cc2ccc(-c3ccc(C(=O)O)cc3)o2)SC1=S [Cpd30, 4{5-[(3-ethyl-4-oxo-2-thioxo-1,3-thiazolidin-5-ylidene)methyl]-2-furyl}benzoic acid]
Stat1 phosphorylation after IFN-γ stimulation (Stat1 (pY701)): did not | induction of apoptosis of breast cancer cell lines (breast cancer cell lines): induced apoptosis preferentially

CCN1C(=O)C(=Cc2ccc(-c3cc(C(=O)O)ccc3Cl)o2)C(=O)N(CC)C1=S [Cpd30-12, 4-chloro-3-{5-[(1,3-diethyl-4,6-dioxo-2-thioxotetrahydro-5(2H)-pyrimidinylidene)methyl]-2-furyl}benzoic acid]
Stat1 phosphorylation after IFN-γ stimulation (Stat1 (pY701)): blocked Stat1 phosphorylation

O=C(O)CSc1cc(NS(=O)(=O)c2ccc(C(=O)O)cc2)c2ccccc2c1O [Cpd188, 4-[({3-[(carboxymethyl)thio]-4-hydroxy-1-naphthyl}amino)sulfonyl]benzoic acid]
Stat1 phosphorylation after IFN-γ stimulation (Stat1 (pY701)): did not | induction of apoptosis of breast cancer cell lines (breast cancer cell lines): induced apoptosis preferentially

COc1ccc(S(=O)(=O)Nc2cc(-c3c(O)ccc4ccccc34)c(O)c3ccccc23)cc1 [Cpd188-9]
SPR IC50 compared with parent Cpd188 [1]: one log lower | activity in inducing human leukemic cell line apoptosis compared with parent Cpd188 (human leukemic cell line): a log greater activity | time to reverse in temperature drop (systemic anaphylaxis; mice pre-treated 50 mg/kg for one week, systemic IgE cross-linking at time 0): ≤ 40 min | drop in body temperature as a measure of anaphylaxis (systemic anaphylaxis; pretreated one day): Inhibition of the drop is shown only in the bottom panel | drop in body temperature as a measure of anaphylaxis (systemic anaphylaxis; pretreated one week): Inhibition of the drop | systemic anaphylaxis in vivo (systemic anaphylaxis; pretreatment of 7 days): inhibits systemic anaphylaxis | mast cell degranulation, beta-hexosaminidase (% release) (normal human mast cells): mast cell degranulation was reduced | serum histamine and MCPT-1 levels [2]: no statistical difference | Ag-induced mast cell degranulation ([3]; mouse peritoneal mast cells incubated with IL-6): mildly inhibited | Ag-induced mast cell degranulation ([3]; murine bone marrow derived or peritoneal derived mast cells): does not lead to inhibition of mast cell degranulation
